Experimental findings from patent US20180110824A1, “Macrocyclic Modulators of the Ghrelin Receptor” (Ocera Therapeutics, Inc., priority 2016, published 2018) are described below.

Test [1] deals with T1, human growth hormone secretagogue receptor (hGHS-R1a) (Homo sapiens, UniProt Q92847).
T1 construct: purchased PerkinElmer BioSignal #RBHGHSM; host or cells: HEK-293, stably transfected
Kind of test: Competitive radioligand binding assay (ghrelin receptor), [125I]-ghrelin displacement on GHS-R/HEK 293 membranes. To be noted: for Ki: read-out: Ki.

Test [2] has as its system pulsatile GH release in rat. Kind of test: Growth hormone response to test compounds in conscious, freely-moving rats. It is filed as in vivo. Here is the method: The following method is employed to determine the temporal pattern and magnitude of the growth hormone (GH) response to test compounds, administered either systemically or centrally. […] Further results are presented in the Examples below.
Adult male Sprague Dawley rats (225-300 g) were purchased from Charles River Canada (St. Constant, Canada) and individually housed on a 12-h light, 12-h dark cycle (lights on, time: 0600-1800) in a temperature (22±1° C.) and humidity-controlled room. Purina rat chow (Ralston Purina Co., St Louis, Mo.) and tap water were freely available. For these studies, chronic intracerebroventricular (icv) and intracardiac venous cannulas were implanted under sodium pentobarbital (50 mg/kg, ip) anesthesia using known techniques. The placement of the icv cannula was verified by both a positive drinking response to icv carbachol (100 ng/10 μl) injection on the day after surgery and methylene blue dye at the time of sacrifice. After surgery, the rats were placed directly in isolation test chambers with food and water freely available until body weight returned to preoperative levels (usually within 5-7 d). During this time, the rats were handled daily to minimize any stress associated with handling on the day of the experiment. On the test day, food was removed 1.5 h before the start of sampling and was returned at the end. Free moving rats were iv injected with either test sample at various levels (3, 30, 300, 1000 μg/kg) or normal saline at two different time points during a 6-h sampling period. The times 1100 and 1300 were chosen because they reflect typical peak and trough periods of GH secretion, as previously documented. The human ghrelin peptide, (5 μg, Phoenix Pharmaceuticals, Inc., Belmont, Calif.) was used as a positive control in the experiments and was diluted in normal saline just before use. To assess the central actions of test compounds on pulsatile GH release, a 10-fold lower dose of the test sample or normal saline, was administered icv at the same time points, 1100 and 1300. Blood samples (0.35 mL) were withdrawn every 15 min over the 6-h sampling period (time: 1000-1600) from all animals. To document the rapidity of the GH response to the test compound, an additional blood sample was obtained 5 min after each injection. […]
Plasma GH concentrations were measured in duplicate by double antibody RIA using materials supplied by the NIDDK Hormone Distribution Program (Bethesda, Md.), The averaged plasma GH values for 5-6 rats per group are reported in terms of the rat GH reference preparation. […]
• 1. […] Blood samples are drawn at defined, 15-minute intervals throughout the test day and growth hormone (GH) measured directly by radioimmunoassay. • 6. […]

The test system of test [3] is morphine-delayed gastric emptying and gastrointestinal transit in rats. Description: Opioid (morphine)-delayed gastric emptying and gastrointestinal transit in rats. It is filed as in vivo, rat. To be noted: i.v., after morphine 3 mg/kg s.c., FIG. 16B. The source says:
Opioid analgesics, such as morphine, are well known to delay gastrointestinal transit which is an important side-effect for this class of drugs. The clinical term for this syndrome is opioid bowel dysfunction (OBD). Importantly, patients recovering from abdominal surgery experience post-operative ileus that is further exacerbated by concomitant opioid therapy for post-surgical pain.
• 1. Rats (male, Sprague-Dawley, 250-300 g) are implanted with jugular vein catheters to accommodate dosing of test articles. • 2. Overnight-fasted rats are administered morphine (3 mg/kg s.c.). • 3. […] Radioactivity (^99mTc) in each tissue isolate is measured as a means of measuring the transit of the meal.

Read-outs that look alike come from different tables or passages of the source.

T1 sequence (Q92847 whole entry): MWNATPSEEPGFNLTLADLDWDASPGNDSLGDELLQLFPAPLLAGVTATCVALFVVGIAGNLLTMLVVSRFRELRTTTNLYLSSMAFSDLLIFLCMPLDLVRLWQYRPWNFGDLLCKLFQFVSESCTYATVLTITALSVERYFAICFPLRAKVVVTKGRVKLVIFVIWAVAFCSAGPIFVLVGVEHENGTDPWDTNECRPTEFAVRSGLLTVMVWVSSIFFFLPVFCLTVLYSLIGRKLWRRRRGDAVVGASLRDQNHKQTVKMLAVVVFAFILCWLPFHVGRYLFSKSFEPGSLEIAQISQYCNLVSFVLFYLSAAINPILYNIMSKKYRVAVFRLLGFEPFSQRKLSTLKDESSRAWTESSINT

Regarding `CC1C(=O)NC(Cc2ccc(F)cc2)C(=O)NCCCc2ccccc2O[C@H](C)CNC(C2CC2)C(=O)N1C` (some centres unmarked) [compound 298], the Ki in test [1] (Table 3B, binding activity at the human ghrelin receptor) is 10 to 100 nM; in test [1] (Table 4, TFA salts unless otherwise noted), 10 to 100 nM. Moreover, the “binding to hGHS-R1a” value in test [1] (representative binding inhibition curve, FIG. 10) was “binds competitively, reversibly, and with high affinity”. The IGF-1 levels result in test [2] (1000 μg/kg dose) was “No changes in IGF-1 levels”. Further, the “effect on GH release” value in test [2] (FIG. 9) is “lack of effect on GH release”. Moreover, in test [2] (dosed 10 min. prior to ghrelin, FIG. 12B), the “effect on ghrelin-induced GH release” value is given as “neither inhibits nor augments ghrelin-induced GH release”. Moreover, the “pulsatile GH release in comparison to vehicle controls” value in test [2] (doses up to 1000 μg/kg i.v.) is “no significant difference in pulsatile GH release”. In addition, the opioid-delayed gastrointestinal transit result in test [3] is given as “effectively reversed in a dose-dependent manner”.
